Patent US6271239A, “Delta opioid receptor-selective benzylidene-substituted morphinans” (Regents of the University of Minnesota, priority 1995, dated 2001)
Square brackets hold non-standard residues; d marks the D form. Peptide text beside a SMILES is read from it. * marks the point of attachment. Tyr(Nα,Nα-allyl2) = C=CCN(CC=C)[C@@H](Cc1ccc(O)cc1)C(=O)*; Aib = CC(C)(N)C(=O)O

Experiments:
[1] = test system: alcohol relapse in recovering alcoholics; settings: cited from earlier work
ethanol drinking [2] = settings: rats bred for high voluntary ethanol drinking; application Ser. No. 07/750,109; cited from earlier work
ethanol intake = settings: rat model of alcoholism; cited from earlier work
ethanol drinking [3] = settings: in vivo; cited from earlier work
κ opioid receptor = biological target: T1, κ opioid receptor (Mus musculus, UniProt P33534); experiment: Mouse tail flick antinociception, antagonism of U50488H (κ agonist); assay type: in vivo; settings: BNTX 6.25 pmol/i.c.v./mouse
T1 construct: from tissue; host or cells: live mouse (BNTX i.c.v.)
T1 sequence (P33534 whole entry): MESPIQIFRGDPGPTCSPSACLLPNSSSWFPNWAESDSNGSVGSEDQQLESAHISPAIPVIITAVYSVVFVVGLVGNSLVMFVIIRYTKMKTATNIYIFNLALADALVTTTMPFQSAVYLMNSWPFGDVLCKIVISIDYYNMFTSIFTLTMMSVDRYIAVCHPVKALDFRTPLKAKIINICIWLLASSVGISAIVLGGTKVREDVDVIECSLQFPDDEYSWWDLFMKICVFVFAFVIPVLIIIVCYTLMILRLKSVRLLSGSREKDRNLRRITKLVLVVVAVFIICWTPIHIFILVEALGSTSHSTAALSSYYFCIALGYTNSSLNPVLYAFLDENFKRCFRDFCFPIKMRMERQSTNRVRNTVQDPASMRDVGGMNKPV
Protocol: (§1) The antagonist effect of BNTX on antinociception was evaluated in mice using the tail flick assay, in accord with the procedure of A. E. Takemor, et al., J. Pharmacol. Exp. Ther., 243, 91 (1987). At least three groups of ten mice were used to generate dose-response curves. A mouse was regarded as positive for antinociception if the latency to flick its tail was more than the control latency plus 3 S.D. of the mean reaction time of the group. The reaction times were determined at the peak time for antinociception after administration of various agonists. Intra-cerebroventricular (i.c.v.) injections were made in a volume of 5 μl by the method of T. J. Haley et al., Br. J. Pharmacol., 12, 12 (1957).
(§2) On Table III, the potencies are expressed as ED50 ratios, which represent the ED50 of the standard agonist administered subcutaneously in the presence of BNTX (6.25 pmoL/i.c.v./mouse), divided by the ED50 of the standard agonist.

[4] = biological target: T2, delta opioid receptor (δ; printed δ1 for DADLE in Table III) (Mus musculus, UniProt P32300); experiment: Mouse vas deferens (MVD) smooth muscle, antagonism of DADLE; assay type: cell-based; settings: data of Table II, MVD/GPI
T2 construct: Both vasa deferentia were dissected out of mice; from tissue; host or cells: mouse vas deferens
T2 sequence (P32300 whole entry): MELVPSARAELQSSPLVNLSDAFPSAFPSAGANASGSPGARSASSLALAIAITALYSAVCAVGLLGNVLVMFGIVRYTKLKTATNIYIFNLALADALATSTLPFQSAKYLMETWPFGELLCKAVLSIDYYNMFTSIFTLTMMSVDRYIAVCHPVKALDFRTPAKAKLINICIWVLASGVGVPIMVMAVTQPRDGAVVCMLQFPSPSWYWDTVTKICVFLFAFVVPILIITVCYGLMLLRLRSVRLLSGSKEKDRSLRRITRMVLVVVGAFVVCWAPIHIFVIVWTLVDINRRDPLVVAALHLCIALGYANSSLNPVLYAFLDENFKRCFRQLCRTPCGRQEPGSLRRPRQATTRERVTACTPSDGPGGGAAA
Protocol: This assay was performed according to the description by G. Henderson et al., Brit. J. Pharmacol., 46, 764 (1972). […] The organ bath was maintained at 37° C.
Concentration-response curves were obtained in the absence (control) and the presence of the antagonist are expressed as IC50 values. […] Therefore, a high IC50 ratio represents a correspondingly high degree of antagonism at a particular receptor. […] Therefore, a low Ke represents a correspondingly high degree of binding at a particular receptor.

δ1 receptors = assay type: binding; settings: guinea pig brain membranes
Protocol: Therefore, a better assessment of the δ subtype selectivity can be obtained from binding of brain membranes and from antagonism studies in mice. The binding of BNTX to guinea pig brain membranes was determined using the general method of L. L. Werling et al., J. Pharmacol. Exp. Ther., 233, 722 (1985), as modified by A. E. Takemori et al., J. Pharmacol. Exp. Ther., 246, 255 (1988). The radio-ligands employed were [^3 H]DPDPE ([D-Pen ^2, D-Pen^5 ] enkephalin) for δ1 receptors, [^3 H]DSLET([D-Ser^2 -Leu^5 ]enkephalin-Thr^6) for δ^2 receptors, [3H]DAMGO for μ receptors and U69593(trans-(+)-3,4-dichloro-N-methyl-N-[2-(1-pyrididinyl)cyclohexyl]benzeneacetamide) for κ receptors.

δ2 opioid receptor = biological target: T3, δ2 opioid receptor (Mus musculus, UniProt P32300); experiment: Mouse tail flick antinociception, antagonism of DSLET; assay type: in vivo; settings: BNTX 6.25 pmol/i.c.v./mouse
T3 construct: from tissue; host or cells: live mouse (BNTX i.c.v.)
T3 sequence (P32300 whole entry): as above
Protocol: as §1, §2

μ opioid receptor = biological target: T4, μ opioid receptor (Mus musculus, UniProt P42866); experiment: Mouse tail flick antinociception, antagonism of mu agonist; assay type: in vivo; settings: BNTX 6.25 pmol/i.c.v./mouse
T4 construct: from tissue; host or cells: live mouse (BNTX i.c.v.)
T4 sequence (P42866 whole entry): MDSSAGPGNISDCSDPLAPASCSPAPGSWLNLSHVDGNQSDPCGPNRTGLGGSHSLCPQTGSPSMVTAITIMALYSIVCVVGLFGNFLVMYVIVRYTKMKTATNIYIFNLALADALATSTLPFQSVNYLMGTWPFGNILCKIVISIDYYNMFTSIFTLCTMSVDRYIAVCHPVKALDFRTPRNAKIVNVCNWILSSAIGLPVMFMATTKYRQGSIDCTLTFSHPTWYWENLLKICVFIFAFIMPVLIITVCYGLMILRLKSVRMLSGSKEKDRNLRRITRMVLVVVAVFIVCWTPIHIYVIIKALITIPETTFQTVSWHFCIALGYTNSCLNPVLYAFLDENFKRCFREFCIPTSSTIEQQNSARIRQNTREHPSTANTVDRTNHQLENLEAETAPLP
Protocol: as §1, §2

SMILES: O=C1CC[C@@]2(O)[C@H]3Cc4ccc(O)c5c4[C@@]2(CCN3CC2CC2)[C@H]1O5 [Naltrexone, naltrexone]
- incidence of relapse in recovering alcoholics [1]: reduce the incidence of relapse in recovering alcoholics

SMILES: Oc1ccc2c3c1O[C@H]1c4oc5ccccc5c4C[C@@]4(O)[C@@H](C2)N(CC2CC2)CC[C@]314 [NTB]
- suppression of ethanol drinking / water intake (ethanol drinking [2]): unexpectedly prolonged suppression of ethanol drinking without altering water intake

SMILES: Oc1ccc2c3c1O[C@H]1c4[nH]c5ccccc5c4C[C@@]4(O)[C@@H](C2)N(CC2CC2)CC[C@]314 [NTI]
- suppression of ethanol drinking / water intake (ethanol drinking [2]): unexpectedly prolonged suppression of ethanol drinking without altering water intake

SMILES: C=CCN1CC[C@]23c4c5ccc(O)c4O[C@H]2C(=O)CC[C@@]3(O)[C@H]1C5 [Naloxone, naloxone]
- ethanol and water intake (ethanol intake): suppress ethanol but not water intake

SMILES: C=CCN(CC=C)[C@@H](Cc1ccc(O)cc1)C(=O)NC(C)(C)C(=O)NC(C)(C)C(=O)N[C@@H](Cc1ccccc1)C(=O)N[C@@H](CC(C)C)C(=O)O [ICI 174864, N,N-diallyl-Tyr-Aib-Aib-Phe-Leu-OH] ({Tyr(Nα,Nα-allyl2)}-[Aib][Aib]FL-OH)
- duration of action (ethanol drinking [3]): very short duration of action
- ethanol drinking (ethanol drinking [3]): strongly inhibits ethanol drinking

SMILES: O=C1C(=Cc2ccccc2)C[C@@]2(O)[C@H]3Cc4ccc(O)c5c4[C@@]2(CCN3CC2CC2)[C@H]1O5 [BNTX, 7-Benzylidene-7-dehydronaltrexone]
- shift of dose-response curve, U50488H (κ opioid receptor; words): not shifted significantly
- ED50 Ratio ("Potency Ratio"), U50488H (κ) (κ opioid receptor; ED50 of U50488H in presence of BNTX / ED50 of agonist): 1.2
- selectivity (smooth muscle, words) [4]: δ-selective antagonist
- selectivity (binding, words) (δ1 receptors): highly selective for δ1 receptor sites
- shift of dose-response curve, DSLET (δ2 opioid receptor; words): not shifted significantly
- ED50 Ratio ("Potency Ratio"), DSLET (δ2) (δ2 opioid receptor; ED50 of DSLET in presence of BNTX / ED50 of agonist): 0.91
- shift of dose-response curve, morphine (μ opioid receptor; words): not shifted significantly
- ED50 Ratio ("Potency Ratio"), DAMGO (μ) (μ opioid receptor; ED50 of DAMGO (so in the source) in presence of BNTX / ED50 of agonist): 0.88
